# “Also recorded” adds a separate entry of the source. Numbered stars: 1 amine (or outer) side, 2 acyl side, 3 side chain; on linkers, the order of the positions; unused ones are H or OH. Square brackets hold non-standard residues; d marks the D form. Peptide text beside a SMILES is read from it. * marks the point of attachment. AMC = Cc1cc(=O)oc2cc(N*)ccc12; Suc = O=C(CCC(=O)[*:2])[*:1]; Cbz = O=C(OCc1ccccc1)*; AEEA = NCCOCCOCC(=O)O
# Tests used:
# [1] = system: recombinant LmHslV; test: LmHslV peptidase activation by HslU C-terminal peptides, substrate Z-EVNL-AMC (JMV4482); type: biochemical, Leishmania major; details: for LmHslV activation relative to reference peptide 10 (LmC12-U2) / Potency of LmHslV activation relative to LmC12-U2: LmHslV 75.2 nM, Figure 3; for LmHslV activation relative to reference peptide 10 (LmC12-U2): initial velocity normalised to 10 = 100%; for LmHslV activation, Ala-scan, D-scan and truncations, relative to LmC12-U2: LmHslV 2 μg, 30 min at 37 °C, JMV4482 (Z-EVNL-AMC) 100 μM, Figure 4
# Experimental: (§1) Activity assay: The peptidase activity of recombinant LmHslV was assessed by measuring the fluorescence of AMC released after hydrolysis of the fluorogenic substrates Z-GGL-AMC or JMV4482 (Z-EVNL-AMC), 100 µM. LmHslV activation was obtained by addition of activating peptides (see type and concentration in the figure legends). Activity buffer: 25 mM Tris-HCl pH 8.0, 1 mM DTT, 0.5 mM EDTA and 5 mM MgCl2. Most of the experiments were performed in a final volume of 50 µL in black 96-well microplates (Fisher Scientific, Illkirch, France. Fluorescence was measured using a spectrofluorimeter (BIO-TEK Instrument, Inc., Winooski, VT, USA): filters 360/340 for excitation and 460/440 for emission.
# Figure 3 Both peptides derived from the C-terminal end of either LmHslU1 or LmHslU2 and analogues from other microorganisms are able to support LmHslV activation. LmHslV (75,2nM) was incubated at 37 °C with the peptide substrate Z-EVNL-AMC (100 μM) in the presence of peptides 8–11 and 1–15 (500 μM). A scrambled version of LmC12-U2 (44) was also included. The fluorescence of the free AMC group, proportional to the activity of the sample, was measured at 2 min. intervals.
# Figure 4 Sequence requirements for activation of LmHslV by C-terminal LmHslU2 peptides. (A) Alascan. Percentage of initial velocity relative to compound LmC12-U2. Fluorescence was measured for 30 min incubation at 37 °C of LmHslV (2 μg) with 100 μM JMV4482 (Z-EVNL-AMC) in the presence of 500 μM peptides. (B) D-scan. Percentage of initial velocity relative to compound LmC12-U2. Activity was measured as in (A). (C) Truncated peptides. Percentage of activity relative to compound LmC12-U2, measured as in (A).
# Figure 5 Effect of conformational constraints on HslV activation by HslU C-terminal peptides. HslV activity was measured in the presence of various cyclic analogues of LmC12-U2 and LmC9-U2. Values are expressed as percentage of initial velocity relative to compound LmC12-U2.
# Figure S3. Effect of LmC12-U2 dimerization. LmHslV has been incubated at 37°C for 30 min with […]
# the substrate Z-EVNL-AMC (100µM). The fluorescence generated by the cleavage of the substrate was recorded at 5 min intervals. The dotted line represents the ratio at each time point between the fluorescence values obtained with the two peptides.
# (also on this page, place not known: dimerization . ( 12), Di-C12 / C12 Fluorescence (arbitrary unit) Ratio)
# [2] = Solubility in aqueous assay solutions (observation); details: aqueous assay conditions, peptide concentrations in the millimolar range; in words
# [3] = system: recombinant LmHslV; test: LmHslV peptidase activation by HslU C-terminal peptides, substrate Z-GGL-AMC; type: biochemical, Leishmania major; details: in words; for Activation of LmHslV (AMC fluorescence liberated per minute): LmHslV 300 nM, 37 °C, Z-GGL-AMC 100 μM, peptide 2.2 mM, read every 15 min for 2 h, mean of two replicates, Figure 1
# Experimental: as §1
# Figure 1 Activation of LmHslV by HslU-derived peptides. (A) Activation of LmHslV by peptides corresponding to the 8 C-terminal residues of LmHslU1 (compound 1) and U2 (compound 4). LmHslV (300 nM) was incubated at 37 °C with the peptide substrate Z-GGL-AMC (100μM) in the presence of vehicle (left) or 2.2 mM of the peptides H-LmC8-U1 or Ac-LmC8-U2. The fluorescence of the free AMC group liberated by hydrolysis of the substrate, which is proportional to the proteolytic activity of the sample, was measured every 15 min for 2 h. The activity is calculated as fluorescence units liberated by the minute during the linear period of the assay. The values are the mean of two experimental replicates for a representative experiment; errors bars represent deviation from the mean of the values. (B) LmHslV can also be activated by octapeptides derived from the C-terminus of […] from E. coli. Assays were performed as in (A), using compounds 4 (Ac-LmC8-U2), 6 (H-EcC8-U) and 7 (Ac-EcC8-U).
# [4] = system: LmHslV; test: Degradation of fluorogenic substrates by LmC12-U2-activated LmHslV; type: biochemical, Leishmania major; details: LmHslV 75.2 nM, 37 °C, substrate 100 μM, activating peptide LmC12-U2 500 μM; Figure 2; in words
# Experimental: as §1
# Figure 2 Degradation of different fluorogenic substrates by LmHslV. LmHslV (75.2 nM) was incubated at 37 °C with different fluorogenic substrates (100 μM) in the presence of the activating peptide LmC12-U2 (500 μM). The fluorescence of the free AMC group, proportional to the activity of the sample, was measured at 2 min. intervals. With each substrate, no activity was measured in the absence of activating peptide: for the sake of clarity, only the negative control values obtained with the substrate ZGGL-AMC are shown.
# [5] = Circular dichroism, α-helix content from θ at 222 nm; type: physicochemical; details: for Helicity%: 25 mM Tris-HCl pH 8.0, 20 °C, 100% helicity for θ = −36,000; for θmre at 222 nm: 25 mM Tris-HCl pH 8.0, around 200 μM peptide, 20 °C, 1 mm cuvette, 3 scans
# Experimental: CD spectra (Figure S2) were recorded on a JASCO J-815 spectropolarimeter from 190 to 260 nm (data pitch of 0.1 nm, continuous scanning mode, 200 nm/min, 3 scans) at 20 °C, using a 1 mm path length cuvette. Baseline was corrected by subtracting the background from the sample spectrum.
# Peptides were solubilised in 50 mM Tris-HCl, pH 8.0 buffer at an estimated concentration of 400 μM according to their apparent molecular mass (i.e. M + xTFA with x = number of basic groups). The solutions were then diluted twice (25 mM Tris and around 200 μM peptides final concentrations) with: […]
# [6] = 37 °C, Z-EVNL-AMC 100 μM, peptide 500 μM, in words
# [7] = substrate Z-EVNL-AMC, Figure 5, in words
# [8] = 37 °C, Z-EVNL-AMC 100 μM, peptide 500 μM
compound,measurement,setting,value
"1,2,3-Triazole-1,4 = [CH2CH2CO-(O2Oc)3-Leu-Gln-Lys-Asn-Val-Asn-Leu-Ala-Lys-Tyr-Leu-Leu-OH]2 [Compound 12]",HslV activity with dimer relative to monomer 10,"[1]; LmHslV, 37 °C, 30 min, peptide 550 μM, Z-EVNL-AMC 100 μM, Figure S3, in words",about twice that reached with the monomer
CC[C@H](C)[C@H](NC(=O)[C@H](Cc1ccccc1)NC(=O)[C@H](CCCCN)NC(=O)[C@H](CCCCN)NC(=O)[C@@H](NC(=O)[C@H](CC(=O)O)NC(=O)[C@@H](NC(=O)[C@H](CCCCN)NC(=O)[C@H](CCCCN)NC(=O)[C@@H](NC(=O)[C@H](CCSC)NC(=O)COCCOCCNC(=O)[C@H](N)CCCNC(=N)N)C(C)C)C(C)C)[C@@H](C)CC)C(=O)N[C@@H](CC(C)C)C(=O)O [Compound 8] (H-[dR][AEEA]MVKKVDIKKFIL-OH),Solubility of activating peptide,[2],significantly more soluble than C8-U1
Ac-EDLSRFIL-OH [Compound 7],Activation of LmHslV (AMC fluorescence liberated per minute),[3],also found to activate LmHslV
Ac-VNLAKYLL-OH [Compound 4],Activation of LmHslV (AMC fluorescence liberated per minute),[3],robust activation
Cbz-Gly-Gly-Leu-{AMC},Degradation of fluorogenic substrate by activated LmHslV,[4],degraded by peptide-activated LmHslV
H-EDLSRFIL-OH [Compound 6],Activation of LmHslV (AMC fluorescence liberated per minute),[3],also found to activate LmHslV
H-VDIKKFIL-OH [Compound 1],Activation of LmHslV (AMC fluorescence liberated per minute),[3],able to activate the protease
H-arg-O2OC-Asn-Val-Asn-Leu-Ala-Lys-Tyr-Leu-Leu-OH [Compound 29],Helicity%,[5]; 0% TFE,5%
same,θmre at 222 nm,[5]; 0% TFE,−1711 deg.cm^2.dmol^−1
same,Helicity%,[5]; 25% TFE,11%
same,θmre at 222 nm,[5]; 25% TFE,−4130 deg.cm^2.dmol^−1
same,Helicity%,[5]; 50% TFE,13%
same,θmre at 222 nm,[5]; 50% TFE,−4733 deg.cm^2.dmol^−1
H-arg-O2Oc-Asn-Leu-Tyr-Lys-Leu-Val-Gln-Leu-Leu-Asn-Lys-Ala-OH [Compound 44],LmHslV activation relative to reference peptide 10 (LmC12-U2),[1]; [6],no activity
H-arg-O2Oc-Leu-Gln-Lys-Asn-Val-Asn-Leu-Ala-Lys-Phe-Leu-Leu-OH [Compound 11],LmHslV activation relative to reference peptide 10 (LmC12-U2),[1]; [6],decreased activity; also recorded: reverse effect
H-arg-O2Oc-Leu-Gln-Lys-Asn-Val-Asn-Leu-Ala-Lys-Tyr-Leu-Leu-OH [Compound 10],"LmHslV activation, Ala-scan, D-scan and truncations, relative to LmC12-U2","[1]; peptide 500 μM, in words",by far the most potent activator
same,Activation of LmHslV compared with LmC8-U2 peptide 4,"[3]; substrate Z-GGL-AMC, preliminary experiments",much more efficiently than the LmC8-U2 peptide 4
H-arg-O2Oc-Leu-Gln-Lys-Asn-Val-Asn-Leu-ala-Lys-Tyr-Leu-Leu-OH [Compound 24],"LmHslV activation, Ala-scan, D-scan and truncations, relative to LmC12-U2","[1]; peptide 500 μM, in words",residual activity
same,Decrease in activity relative to LmC12-U2,"[1]; Z-EVNL-AMC 100 μM, peptide 500 μM, D-scan",80%
H-arg-O2Oc-Leu-Gln-Lys-Asn-Val-Asn-leu-Ala-Lys-Tyr-Leu-Leu-OH [Compound 23],"LmHslV activation, Ala-scan, D-scan and truncations, relative to LmC12-U2","[1]; peptide 500 μM, in words",no activity
H-arg-O2Oc-Leu-Gln-Lys-c[Asp-Val-Asn-Leu-Dap]-Lys-Tyr-Leu-Leu-OH (sidechain bridge or staple) [Compound 42],LmHslV activation by cyclic analogues relative to reference peptide 10,[1]; [7],almost half as active as the reference peptide
H-arg-O2Oc-Leu-Gln-Lys-c[Asp-Val-Asn-Leu-Lys]-Lys-Tyr-Leu-Leu-OH (sidechain bridge or staple) [Compound 37],LmHslV activation by cyclic analogues relative to reference peptide 10,[1]; [7],the more potent cyclic analogue
same,Helicity%,[5]; 0% TFE,5%
same,θmre at 222 nm,[5]; 0% TFE,−1626 deg.cm^2.dmol^−1
same,Helicity%,[5]; 25% TFE,17%
same,θmre at 222 nm,[5]; 25% TFE,−6143 deg.cm^2.dmol^−1
same,θmre at 222 nm,[5]; 50% TFE,−7628 deg.cm^2.dmol^−1
H-arg-O2Oc-Leu-Gln-Lys-c[Asp-Val-Asn-Leu-Orn]-Lys-Tyr-Leu-Leu-OH (sidechain bridge or staple) [Compound 41],LmHslV activation by cyclic analogues relative to reference peptide 10,[1]; [7],activity decreased
H-arg-O2Oc-Leu-Gln-Lys-c[Asp-Val-Asn-Leu-lys]-Lys-Tyr-Leu-Leu-OH (sidechain bridge or staple) [Compound 39],LmHslV activation by cyclic analogues relative to reference peptide 10,[1]; [7],much more potent than the linear compound 24
H-arg-O2Oc-Leu-Gln-Lys-c[asp-Val-Asn-Leu-lys]-Lys-Tyr-Leu-Leu-OH (sidechain bridge or staple) [Compound 40],Relative potency: percentage of initial velocity relative to LmC12-U2,"[1]; cyclic analogues, substrate Z-EVNL-AMC, Figure 5",55%
H-arg-O2Oc-Leu-Met-Asn-Asn-Ile-Asp-Leu-Ala-Lys-Tyr-Ile-Leu-OH [Compound 13],Potency of LmHslV activation relative to LmC12-U2,[1]; [8],twice
H-arg-O2Oc-Leu-Val-Ala-Asp-Glu-Asp-Leu-Ser-Arg-Phe-Ile-Leu-OH [Compound 15],LmHslV activation relative to reference peptide 10 (LmC12-U2),[1]; [6],as potent as LmC12-U2
H-arg-O2Oc-Met-Val-Lys-Lys-Val-Asp-Ile-Lys-Lys-Tyr-Ile-Leu-OH [Compound 9],LmHslV activation relative to reference peptide 10 (LmC12-U2),[1]; [6],increase in activity; also recorded: large increase in potency
H-arg-O2Oc-Phe-Ile-Lys-Gln-Tyr-Asp-Leu-Lys-Lys-Tyr-Ile-Ile-OH [Compound 14],Potency of LmHslV activation relative to LmC12-U2,[1]; [8],1.5 fold
H-arg-O2Oc-c[Asp-Val-Asn-Leu-Lys]-Lys-Tyr-Leu-Leu-OH (sidechain bridge or staple) [Compound 43],LmHslV activation by cyclic analogues relative to reference peptide 10,[1]; [7],almost as active as the reference peptide 10; also recorded: did not reduce the activity compared to LmC12-U2 (10)
same,Helicity%,[5]; 0% TFE,6%
same,θmre at 222 nm,[5]; 0% TFE,−2225 deg.cm^2.dmol^−1
same,Helicity%,[5]; 25% TFE,14%
same,θmre at 222 nm,[5]; 25% TFE,−5026 deg.cm^2.dmol^−1
same,Helicity%,[5]; 50% TFE,14%
same,θmre at 222 nm,[5]; 50% TFE,−5140 deg.cm^2.dmol^−1
Suc-LLVY-{AMC},Degradation of fluorogenic substrate by activated LmHslV,[4],degraded by peptide-activated LmHslV
